From article PMC6887759, “The C-Type Lysozyme from the upper Gastrointestinal Tract of Opisthocomus hoatzin, the Stinkbird” (International Journal of Molecular Sciences, 2019) come the findings set out here.

Assay [1] has as its target T1, OhLys-kexB (E35A variant used for the ligand complexes) (Opisthocomus hoazin, UniProt Q91159, INS20KR/E54A).
T1 construct: gene LYZ; mature enzyme, 126 residues in wild type, secreted from Aspergillus oryzae; Lys-Arg inserted between Glu1 and Ile2 (uncleaved kexB site), N-terminus EKRIIPRCELV; monomer in asymmetric unit
The assay can be described thus: X-ray crystallography, co-crystallisation. The class given is biochemical. Particulars: added as chitohexaose; hydrolysed by residual activity, so only sugars in -1 to -3 (weak -4) seen; intact hexamer not observed; mature numbering.

Assay [2] deals with T1, OhLys-kexB (E35A variant used for the ligand complexes). In words: X-ray crystallography, co-crystallisation. The class given is binding. Particulars: density essentially identical to the chitohexaose co-crystal, subsites -1 to -3 (poorly ordered -4); not fully refined; mature numbering.

T1 sequence (Q91159 other isoform, or with tags, fused parts or gaps INS20KR/E54A): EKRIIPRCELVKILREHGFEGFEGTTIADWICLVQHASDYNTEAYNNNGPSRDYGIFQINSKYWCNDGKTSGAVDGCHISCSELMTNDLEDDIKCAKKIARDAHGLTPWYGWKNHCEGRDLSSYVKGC

With `CC(=O)N[C@H]1[C@H](O[C@H]2[C@H](O)[C@@H](NC(C)=O)[C@H](O[C@H]3[C@H](O)[C@@H](NC(C)=O)C(O)O[C@@H]3CO)O[C@@H]2CO)O[C@H](CO)[C@@H](O[C@@H]2O[C@H](CO)[C@@H](O[C@@H]3O[C@H](CO)[C@@H](O[C@@H]4O[C@H](CO)[C@@H](O)[C@H](O)[C@H]4NC(C)=O)[C@H](O)[C@H]3NC(C)=O)[C@H](O)[C@H]2NC(C)=O)[C@@H]1O` (some centres unmarked) [chitohexaose], the “X-ray crystallography, co-crystallisation” value in assay [1] is recorded as “hydrolyse; at the high protein concentrations of a prolonged crystallization, the chitohexaose substrate”.

Turning to `CC(=O)N[C@H]1[C@H](O[C@H]2[C@H](O)[C@@H](NC(C)=O)C(O)O[C@@H]2CO)O[C@H](CO)[C@@H](O[C@@H]2O[C@H](CO)[C@@H](O[C@@H]3O[C@H](CO)[C@@H](O)[C@H](O)[C@H]3NC(C)=O)[C@H](O)[C@H]2NC(C)=O)[C@@H]1O` (some centres unmarked) [chitotetraose], the “X-ray crystallography, co-crystallisation” value in assay [2] is on record as “The density for the chitotetraose ligand is essentially identical to this”.
